Laboratory results as given in patent publication US9439875B2, “Anxiolytic effect of pterostilbene” (The United States of America, as represented by The …, priority 2011, dated 2016).
“And” between values parts separate entries of the source, which are not always exact repeats. Identical values can stand only once. “Also recorded” adds a separate entry of the source. Like-named read-outs stand apart in the source and are kept apart here.

What was measured:
Swiss Webster mice = test: Spontaneous motor (locomotor) activity; format: in vivo, mouse
Protocol: To measure spontaneous motor activity, adult Swiss Webster mice (n=8-10/group) were administered with pterostilbene by oral gavage. Each mouse was then placed in the locomotor chamber and acclimated in the Plexiglas enclosure for 30 min. After the 30 min acclimation period, locomotor activity was measured for 30 min using an automated activity monitoring system (San Diego Instruments, CA, USA). Total activity was expressed as the total number of interruptions of 16 cell photobeams per chamber.

[1] = Plasma level of pterostilbene by GC-MS; format: in vivo; settings: mouse, after EPM session; for concentration at 65 min: Swiss Webster, plasma, oral, read-out: Pterostilbene level in the plasma (± SD)
Protocol: (§1) After the EPM session, blood samples were taken from each mouse by submandibular vein puncture in heparinized blood collection vials. Mice were then sacrificed and brains quickly removed. Their prefrontal cortex (PFC) and hippocampus were dissected out on ice, and immediately frozen in liquid nitrogen and stored at −80° C. until further processing. Blood samples were centrifuged at 2000 rpm at 4° C. for 20 min to get the plasma as supernatant. The plasma samples were stored at −80° C. until used.
Plasma were kept at −80° C., and thawed on ice prior to extraction. Plasma were treated with β-glucuronidase, to hydrolyze any glucuronidated pterostilbene, following published procedures (Remsberg et al., supra). Briefly, 50 μL plasma (from each animal) was transferred to an Eppendorf tube, and 60 μL of β-glucuronidase solution (5000 U/mL potassium phosphate buffer, 75 mM, pH 6.8 at 37° C.) was added. The mixture was vortex-mixed then incubated at 37° C. while shaking at 750 rpm for 20 hrs. Thereafter, ice-cold HPLC grade acetonitrile was added, vortex-mixed, and centrifuged for 5 min at 5000 rpm, 4° C. The supernatant was collected, and dried under a stream of nitrogen. The dried supernatant was used for GC-MS analysis.
(§2) The nitrogen-dried samples (plasma and brain tissue extracts) were treated with 30 μL of a 1:1 mixture of N,O-bis[trimethylsilyl]trifluoroacetamide and dimethylformamide (Pierce Biotechnology, Inc., Rockford, Ill.) and heated at 70° C. for 40 min. The derivatized samples were analyzed for levels of pterostilbene using a JEOL GCMate II Instrument (JEOL USA Inc., Peabody, Mass.) equipped with a J&W DB-5 capillary column (0.25 mm internal diameter, 0.25 μm film thickness, and 30 m length; Agilent Technologies, Foster City, Calif.). […] The carrier gas was ultrahigh purity helium, at 1 mL/min flow rate. The injection port, GC-MS interface, and ionization chamber were kept at 250, 230, and 230° C., respectively. The volume of injection was 2 μL (splitless injection). The mass spectrum was acquired in the positive, selected ion-monitoring mode (m/z 328, 313, and 297); electron impact 70 eV. GC-MS analyses were in duplicates. The retention time of pterostilbene was 10.2 min. Quantitation of pterostilbene was done using an external standard of a synthetic sample of pterostilbene previously characterized for structure and purity.

[2] = Hippocampus level of pterostilbene by GC-MS; format: in vivo, mouse; settings: for Pterostilbene level in the hippocampus (± SD): mouse
Protocol: as §1
Hippocampus tissues were kept at −80° C. until time of extraction. Hippocampus (left and right) from 2-3 animals was combined in an Eppendorf tube, and processed as one sample. To the tube was added 200 μL phosphate buffer (0.2M NaH2PO4:0.2M Na2HPO4, and the tissues were homogenized manually for 2 minutes. To 100 μl aliquot, 50 μL β-glucuronidase (5000 U/mL potassium phosphate buffer) was added. The mixture was vortex-mixed, and incubated (37° C., 20 hours) while shaking (750 rpm). The samples were then centrifuged (15 min, 7000 g, 4° C.). The supernatant was collected and partitioned with ethyl acetate (200 μL, twice). The ethyl acetate layers were combined, dried under a stream of nitrogen, and used for GC-MS analysis. Extraction of the prefrontal cortex (PFC) was performed in the same manner as the hippocampus; PFC tissues from three animals were combined and treated as one sample.
as §2

[3] = Prefrontal cortex level of pterostilbene by GC-MS; format: in vivo, mouse; settings: all the doses administered (1-10 mg/kg p.o.)
Protocol: as §1
Hippocampus tissues were kept at −80° C. until time of extraction. Hippocampus (left and right) from 2-3 animals was combined in an Eppendorf tube, and processed as one sample. […]
The nitrogen-dried samples (plasma and brain tissue extracts) were treated with 30 μL of a 1:1 mixture of N,O-bis[trimethylsilyl]trifluoroacetamide and dimethylformamide (Pierce Biotechnology, Inc., Rockford, Ill.) and heated at 70° C. for 40 min. The derivatized samples were analyzed for levels of pterostilbene using a JEOL GCMate II Instrument (JEOL USA Inc., Peabody, Mass.) equipped with a J&W DB-5 capillary column (0.25 mm internal diameter, 0.25 μm film thickness, and 30 m length; Agilent Technologies, Foster City, Calif.). […] Quantitation of pterostilbene was done using an external standard of a synthetic sample of pterostilbene previously characterized for structure and purity.

[4] = in vivo; cited from earlier work

COc1cc(/C=C/c2ccc(O)cc2)cc(OC)c1 [pterostilbene]
locomotor activity (total number of photobeam interruptions per chamber) (Swiss Webster mice; 1-10 mg/kg by oral gavage, one-way ANOVA): no stimulant or depressive actions; also recorded: no significant effect | sedating tendency in EPM and locomotor activity monitoring chambers (Swiss Webster mice; higher doses): did not show any sedating tendency | locomotor activity (Swiss Webster mice; highest dose (10 mg/kg)): didn't have any effect | spontaneous motor activity (Swiss Webster mice; maximal anxiolytic dose (2 mg/kg), post hoc comparison): not affected | Pterostilbene level in the plasma (± SD) ([1]; 1 mg/kg BW p.o.): 10.0887 ± 6.6699 ng/mL | Pterostilbene level in the plasma (± SD) ([1]; 10 mg/kg BW p.o.): 130.2651 ± 40.2558 ng/mL | concentration at 65 min ([1]; 1 mg/kg BW, 1 mg/kg BW p.o.): 10.1 ± 6.67 ng/mL | concentration at 65 min ([1]; 2 mg/kg BW, 2 mg/kg BW p.o.): 27 ± 7.27 ng/mL | concentration at 65 min ([1]; 5 mg/kg BW, 5 mg/kg BW p.o.): 72 ± 19 ng/mL | concentration at 65 min ([1]; 10 mg/kg BW, 10 mg/kg BW p.o.): 130 ± 40.2 ng/mL | Pterostilbene level in the hippocampus (± SD) ([2]; 2 mg/kg BW p.o.): 0.2627 ± 0.0230 ng/hippocampus | Pterostilbene level in the hippocampus (± SD) ([2]; 5 mg/kg BW p.o.): 0.5314 ± 0.1830 ng/hippocampus | Pterostilbene level in the hippocampus (± SD) ([2]; 10 mg/kg BW p.o.): 1.1217 ng/hippocampus and 1.1217 ± 0.1322 ng/hippocampus | Pterostilbene level in the hippocampus ([2]; range over 2, 5 and 10 mg/kg doses): 0.2627-1.1217 ng/hippocampus | Pterostilbene level in the pre-frontal cortex tissues [3]: trace levels | half-life [4]: approximately 2 hr
